From US7485665B2, “Medicinal composition” (Nagase Chemtex Corporation, priority 2002, dated 2009)
Where a name gives a salt, the structure may show the parent alone.

What was measured:
serotonin receptor 4 = molecular target: T1, serotonin receptor 4 (Cavia porcellus, UniProt O70528); test: Binding affinity for serotonin receptor 4 ([3H]-GR113808 displacement); set-up: species or system guinea pig; details: for IC50: guinea pig corpus striatum receptor sample, 0.1 nM [3H]-GR113808
T1 construct: centrifugation and suspension were repeated to prepare a serotonin receptor 4 sample; from tissue; host or cells: corpus striatum of Hartley male guinea pig (membrane homogenate)
Procedure: Corpus striatum extracted from a Hartley male guinea pig was homogenized in a 50 mM HEPES-NaOH buffer (pH 7.4), and centrifugation and suspension were repeated to prepare a serotonin receptor 4 sample. The receptor sample was reacted with a solution containing a 0.1 nM radioactive ligand of [^3H]-GR113808 and the specimen drug obtained in Example 9 at a prescribed concentration. Then, the solution was filtered by suction using a multifilter MF-12G (glass filter (provided with Whatman GFIC)), and radioactivity of the filter was measured using a scintillation counter (LS6500 Beckman), so that affinity of the specimen drug for a serotonin receptor 4 was measured. Separately, the same procedure was also performed regarding TKS159 hydrochloride, and the affinity was compared.

dopamine D2 receptor = molecular target: T2, dopamine D2 receptor (Rattus norvegicus, UniProt P61169); test: Binding affinity for dopamine D2 receptor ([3H]-spiperone displacement); details: for IC50: Wistar rat corpus striatum receptor sample, 0.25 nM [3H]-spiperone
T2 construct: centrifugation and suspension were repeated to prepare a dopamine D2 receptor sample; from tissue; host or cells: corpus striatum of Wistar male rat (membrane homogenate)
Procedure: Corpus striatum extracted from a Wistar male rat was homogenized in a 50 mM Tris-HCl buffer (pH 7.7), and centrifugation and suspension were repeated to prepare a dopamine D2 receptor sample. The receptor sample was reacted with a solution containing a 0.25 nM radioactive ligand of [^3H]-spiperone and the specimen drug obtained in Example 9 at a prescribed concentration. Then, the solution was filtered by suction using a multifilter MF-12G (glass filter (provided with Whatman GF/C)), and radioactivity of the filter was measured using a scintillation counter (LS6500 Beckman), so that affinity of the specimen drug for a dopamine D2 receptor was measured. Separately, the same procedure was also performed regarding TKS159 hydrochloride, and the affinity was compared.

[1] = test system: esophagus sample extracted from a rat; test: Relaxation reaction in rat-extracted esophagus muscularis mucosae sample contracted with carbachol; details: for EC50: Wistar rat esophagus muscularis mucosae, 3x10^-6 M carbachol, 1 μM methysergide, ketanserin and granisetron present
Procedure: Regarding the drug obtained in Example 9, a degree of action of promoting the movement of the digestive tract was measured using an esophagus sample extracted from a rat.
An esophagus in a chest cavity was extracted from a Wistar male rat, and muscularis propria sample containing longitudinal muscle and circular muscle was removed to prepare a muscularis mucosae sample having a length of about 2 cm. The sample was immersed in a nutrient solution (containing NaCl 118.5, KCl 4.7, CaCl2 1.3, MgSO4 0.6, NaHCO3 25.0, KH2PO4 1.2, and glucose 11.1 (unit mM)), and constriction of the sample and stability of the constriction were confirmed at 32°C using 3x10 ^-6M carbachol while a 95% 02/5% Co2 mixed gas was flown, each 1 μM of methysergide, ketanserin and granisetron were added, the drug obtained in Example 9 was accumulatively applied at a common ratio of 3 after 30 minutes, and a degree of relaxation was isotonically (stationary tension; about 0.5 g) measured via a transducer. Separately, the same procedure was also performed regarding TKS159 hydrochloride, and an intensity of the action was compared.

beagle dogs [2] = test: 4-week repeated oral administration to beagle dogs, necropsy and pathohistological test; format: in vivo; details: beagle dog, oral 100 mg/kg once a day for 4 weeks
Procedure: Using three beagle dogs as a test animal, 4-amino-5-chloro-2-methoxy-N-[(2S,4S)-2-hydroxymethyl-4-pyrrolidinyl]benzamide monohydrochloride obtained in Example 9 was repeatedly administered orally at a dose of 100 mg/kg once a day for 4 weeks. Thereafter, the animals were sacrificed by exsanguination from carotid artery under anesthesia, and the brain, aorta, heart, lung, and liver were extracted. These organs were examined with naked eyes, fixed with a 0.1% phosphate-buffered 10% formalin solution, and stored. Each organ was embedded in paraffin, and sliced to prepare a hematoxine orange-stained sample. Pathohistological test on the sections was performed using a light microscope.

Sprague-Dawley male rats = test: 28-day repeated oral administration to rats, necropsy and pathohistological test; format: in vivo; details: rat, oral 300, 1000 or 2000 mg/kg once a day for 28 days
Procedure: Five Sprague-Dawley male rats, 4 week age, weighing each 160.3 to 169.5 g, were reared for 8 days for quarantine and training were handled as one group, and they were grouped into four groups of a control group, a 300 mg/kg administration, a 1000 mg/kg administration, and a 2000 mg/kg administration. 4-Amino-5-chloro-2-methoxy-N-[(2S,4S)-2-hydroxymethyl-4-pyrrolidinyl] benzamide monohydrochloride obtained in Example 9 was ground with a mortar, the powder was added so that the compound was contained at 300 mg, 1000 mg or 2000 mg in 10 ml of a 0.5% aqueous methylcellulose solution (manufactured by Wako Pure Chemical Industries, Ltd.; prepared using Japanese Pharmacopoeia injectable water), and the solution was stirred to prepare an administration specimen. Administration specimens for 7 days were prepared at one time, once per week, stored in a refrigerator, and used. One-time dose was defined to be 10 ml/kg, and the specimen was forcibly administered orally at 9 o'clock to 12 o'clock for 28 days once a day using a rat stomach tube. Only a 0.5% aqueous methylcellulose solution was administered at 10 ml/kg to a control group.
During training and drug administration period, a solid feed (CE-2 manufactured by CLEA Japan Inc.) and tap water were freely given.

ddy male mouse = test: Acute toxicity in mouse, oral and intravenous administration; format: in vivo
Procedure: Using a ddy male mouse, the drug obtained in Example 9 and TKS159 were suspended in 0.5% methylcellulose for oral administration, and were dissolved in a physiological saline for intravenous administration. This was administered by a forced oral administration method and an intravenous administration method using a probe, and acute toxicity was observed.

beagle dogs [3] = test: Repeated oral administration toxicity tests of TKS159 in beagle dogs (4, 13 and 52 weeks); format: in vivo
Procedure: Separately, beagle dogs (female and male) were divided into 4 groups consisting of 6, 4, 4 and 6 dogs and, among them, to 3 groups were repeatedly administered orally TKS 159 at a dose of 2.5, 6.0 and 15.0 mg/kg, and to a control group was repeatedly administered orally an excipient, for 13 weeks, and observation of the general status and various tests were performed. Further, regarding a control group and a case of a part of a 15.0 mg/kg administration group, after a repeated administration period for 13 weeks, a recovery test of no administration of a drug was performed for 4 weeks, and then the same test was performed. […] Separately, beagle dogs (female and male) were divided into 4 groups containing 5, 3, 3 and 5 dogs and, among them, to 3 groups was repeatedly administered orally TKS159 at a dose of 0.25, 0.75 and 2.25 mg/kg, to a control group was repeatedly administered an excipient orally, for 52 weeks, and observation of the general status and various tests were performed. Further, regarding a control group and a case of a part of a 2.25 mg/kg administration group, after a repeated administration period for 52 weeks, a recovery test of no administration of a drug was performed for 4 weeks, and then the same test was performed.

[4] = beagle dogs, 13 weeks, 15.0 mg/kg group
[5] = beagle dogs, 52 weeks, 2.25 mg/kg group
[6] = male beagle dogs, 4 weeks, 100 mg/kg group

T1 sequence (O70528 whole entry): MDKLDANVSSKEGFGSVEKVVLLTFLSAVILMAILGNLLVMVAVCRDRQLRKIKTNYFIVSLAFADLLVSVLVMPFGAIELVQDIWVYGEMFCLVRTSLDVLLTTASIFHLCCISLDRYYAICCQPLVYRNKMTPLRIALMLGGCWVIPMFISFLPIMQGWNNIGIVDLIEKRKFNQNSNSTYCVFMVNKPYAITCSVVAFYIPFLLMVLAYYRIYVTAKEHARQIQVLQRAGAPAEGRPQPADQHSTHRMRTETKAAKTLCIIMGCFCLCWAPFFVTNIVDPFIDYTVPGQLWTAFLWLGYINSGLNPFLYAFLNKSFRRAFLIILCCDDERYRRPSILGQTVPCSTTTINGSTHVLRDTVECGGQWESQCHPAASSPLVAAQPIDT
T2 sequence (P61169 whole entry): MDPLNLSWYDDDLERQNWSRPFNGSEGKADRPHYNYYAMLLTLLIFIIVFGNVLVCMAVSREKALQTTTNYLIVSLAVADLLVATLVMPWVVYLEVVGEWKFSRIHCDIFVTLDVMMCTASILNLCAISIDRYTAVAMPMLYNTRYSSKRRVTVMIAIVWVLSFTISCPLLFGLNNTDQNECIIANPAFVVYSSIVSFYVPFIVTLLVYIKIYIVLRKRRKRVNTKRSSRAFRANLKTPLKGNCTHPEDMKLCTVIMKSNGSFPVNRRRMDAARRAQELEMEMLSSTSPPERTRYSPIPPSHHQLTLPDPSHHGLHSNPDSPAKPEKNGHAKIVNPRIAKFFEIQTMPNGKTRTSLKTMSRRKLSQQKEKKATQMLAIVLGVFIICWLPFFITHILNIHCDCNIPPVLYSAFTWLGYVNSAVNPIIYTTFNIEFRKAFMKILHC

Compound	affinity for a serotonin receptor 4 as compared with TK5159 hydrochloride (serotonin receptor 4; FIG. 1)	IC50 (serotonin receptor 4) [nM]	affinity for a dopamine D2 receptor as compared with TKS159 hydrochloride (dopamine D2 receptor; FIG. 2)	IC50 (dopamine D2 receptor) [nM]	relaxing action as compared with TKS159 hydrochloride ([1]; FIG. 3)	EC50 [1] [nM]	pathohistological test (beagle dogs [2])	organs examined with naked eyes (beagle dogs [2]; brain, aorta, heart, lung, liver)	organs observed with naked eyes (Sprague-Dawley male rats)	pathohistological test (Sprague-Dawley male rats)	Survival (ddy male mouse; intravenous administration, 132 mg/kg)	Survival (ddy male mouse; oral administration, 1080 mg/kg)	findings in other one case (beagle dogs [3]; [4])	findings in two cases (beagle dogs [3]; [4])	arteritis findings (beagle dogs [3]; [5])	malacia findings (beagle dogs [3]; [5])	findings in death case (beagle dogs [3]; [6])	findings in survival case (beagle dogs [3]; [6])
COc1cc(N)c(Cl)cc1C(=O)N[C@@H]1CN[C@H](CO)C1.Cl [Example 9, 4-amino-5-chloro-2-methoxy-N-[(2S,4S)-2-hydroxymethyl-4-pyrrolidinyl]benzamide monohydrochloride]	stronger	250	weaker	34000	stronger	700	encephalomalacia, arteritis and thrombus formation were not recognized	Abnormality was not seen in any organ	Abnormality was not seen with naked eyes in any organ	encephalomalacia, arteritis and thrombus formation were not recognized	–	–	–	–	–	–	–	–
CCN1CC(NC(=O)c2cc(Cl)c(N)cc2OC)CC1CO (stereo not drawn) [TKS159 hydrochloride]	–	450	–	3800	–	1100	–	–	–	–	No survival among 6	No survival among 2	–	–	–	–	–	–
CCN1C[C@@H](NC(=O)c2cc(Cl)c(N)cc2OC)C[C@H]1CO [TKS159, 4-Amino-5-chloro-2-methoxy-N-[(2S,4S)-1-ethyl-2-hydroxymethyl-4-pyrrolidinyl]benzamide]	–	–	–	–	–	–	–	–	–	–	–	–	necrosis of an artery septum and surrounding cell infiltration were recognized	arteritis was recognized	arteritis was observed in thighbone marrow and mediastinal lymph node in one case among male 5 cases	malacia was seen in piriform lobe and hippocampus in other one case	thrombus formation was recognized in a lung artery and a heart coronary artery, and slight bleeding was recognized in a cavity surrounding a blood vessel in a cerebral parenchyma	big thrombus formation was recognized in a left ventricle, and thrombus formation was recognized in a kidney arcuate artery and an interlobar artery
